Results reported in patent US10806785B2, “Immunomodulator compounds and methods of use” (Incyte Corporation, priority 2016, dated 2020).

Molecular target: PD-1/PD-L1 (Homo sapiens (Human), UniProt Q9NZQ7)
Assay: PD-1/PD-L1 binding assay (HTRF)
Method in brief: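 Fc-tagged human PD-1 (25-167) and His-tagged PD-L1 (19-238), listed as […] and 10 nM final, preincubated 40 min with inhibitors in PBS pH 7.4, 0.05% Tween-20, 0.1% BSA, 1% DMSO, 25 °C. Eu anti-IgG/APC anti-His added, 60 min, 665/620 nm HTRF ratio; IC50 fitted from percent control activity.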

Sequence of PD-1/PD-L1 (Q9NZQ7 19-238): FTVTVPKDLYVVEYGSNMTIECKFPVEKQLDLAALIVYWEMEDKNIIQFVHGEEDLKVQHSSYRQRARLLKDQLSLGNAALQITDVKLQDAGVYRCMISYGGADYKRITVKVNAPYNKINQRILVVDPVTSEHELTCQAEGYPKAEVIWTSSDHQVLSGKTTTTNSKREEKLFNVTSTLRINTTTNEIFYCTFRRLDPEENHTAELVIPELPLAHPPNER

| SMILES | IC50 [nM] |
| --- | --- |
| CCC1(C(=O)O)CCC(N2CCc3c(nc(C(=O)Nc4cccc(-c5cccc(NC(=O)c6nc7c(n6C)CCN(C6CCOCC6)C7)c5Cl)c4Cl)n3C)C2)CC1 (stereo not drawn) [Example 99, 4-(2-((2,2′-dichloro-3′-(1-methyl-5-(tetrahydro-2H-pyran-4-yl)-4,5,6,7-tetrahydro-1H-imidazo[4,5-c]pyridine-2-carboxamido)-[1,1′-biphenyl]-3-yl)carbamoyl)-1-methyl-1,4,6,7-tetrahydro-5H-imidazo[4,5-c]pyridin-5-yl)-1-ethylcyclohexane-1-carboxylic acid] | ≤ 10 |
| Cc1c(NC(=O)c2nc3c(n2C)CCN(CCc2ccc(C(=O)O)cc2)C3)cccc1-c1cccc(NC(=O)c2nc3c(n2C)CCN(C)C3)c1Cl [Example 101, 4-(2-(2-((2′-chloro-3′-(1,5-dimethyl-4,5,6,7-tetrahydro-1H-imidazo[4,5-c]pyridine-2-carboxamido)-2-methyl-[1,1′-biphenyl]-3-yl)carbamoyl)-1-methyl-1,4,6,7-tetrahydro-5H-imidazo[4,5-c]pyridin-5-yl)ethyl)benzoic acid] | ≤ 10 |
| Cc1c(NC(=O)c2nc3c(n2C)CCN(CC24CCC(C(=O)O)(CC2)C4)C3)cccc1-c1cccc(NC(=O)c2nc3c(n2C)CCN(C)C3)c1Cl [Example 102, 4-((2-((2′-chloro-3′-(1,5-dimethyl-4,5,6,7-tetrahydro-1H-imidazo[4,5-c]pyridine-2-carboxamido)-2-methyl-[1,1′-biphenyl]-3-yl)carbamoyl)-1-methyl-1,4,6,7-tetrahydro-5H-imidazo[4,5-c]pyridin-5-yl)methyl)bicyclo[2.2.1]heptane-1-carboxylic acid] | ≤ 10 |
| Cc1c(NC(=O)c2nc3c(n2C)CCN(CC24CCC(C(=O)O)(CC2)CC4)C3)cccc1-c1cccc(NC(=O)c2nc3c(n2C)CCN(C)C3)c1Cl [Example 103, 4-((2-(2′-chloro-3′-(1,5-dimethyl-4,5,6,7-tetrahydro-1H-imidazo[4,5-c]pyridine-2-carboxamido)-2-methylbiphenyl-3-ylcarbamoyl)-1-methyl-6,7-dihydro-1H-imidazo[4,5-c]pyridin-5(4H)-yl)methyl)bicyclo[2.2.2]octane-1-carboxylic acid] | ≤ 10 |
| CCC1(C(=O)O)CCC(N2CCc3c(nc(C(=O)Nc4cccc(-c5cccc(NC(=O)c6nc7c(n6C)CCN(C)C7)c5Cl)c4C)n3C)C2)CC1 (stereo not drawn) [Example 104, 4-(2-((2′-chloro-3′-(1,5-dimethyl-4,5,6,7-tetrahydro-1H-imidazo[4,5-c]pyridine-2-carboxamido)-2-methyl-[1,1′-biphenyl]-3-yl)carbamoyl)-1-methyl-1,4,6,7-tetrahydro-5H-imidazo[4,5-c]pyridin-5-yl)-1-ethylcyclohexane-1-carboxylic acid] | ≤ 10 |
| CCN1CCc2c(nc(C(=O)Nc3cccc(-c4cccc(NC(=O)c5nc6c(n5C)CCN(C5CCC(C)(C(=O)O)CC5)C6)c4C)c3Cl)n2C)C1 (stereo not drawn) [Example 105, 4-(2-((2′-chloro-3′-(5-ethyl-1-methyl-4,5,6,7-tetrahydro-1H-imidazo[4,5-c]pyridine-2-carboxamido)-2-methyl-[1,1′-biphenyl]-3-yl)carbamoyl)-1-methyl-1,4,6,7-tetrahydro-5H-imidazo[4,5-c]pyridin-5-yl)-1-methylcyclohexane-1-carboxylic acid] | ≤ 10 |
| Cc1c(NC(=O)c2nc3c(n2C)CCN(C2CCC(C)(C(=O)O)CC2)C3)cccc1-c1cccc(NC(=O)c2nc3c(n2C)CCN(C(C)C)C3)c1Cl (stereo not drawn) [Example 106, 4-(2-((2′-chloro-3′-(5-isopropyl-1-methyl-4,5,6,7-tetrahydro-1H-imidazo[4,5-c]pyridine-2-carboxamido)-2-methyl-[1,1′-biphenyl]-3-yl)carbamoyl)-1-methyl-1,4,6,7-tetrahydro-5H-imidazo[4,5-c]pyridin-5-yl)-1-methylcyclohexane-1-carboxylic acid] | ≤ 10 |
| Cc1c(NC(=O)c2nc3c(n2C)CCN(C2CCC(C)(C(=O)O)CC2)C3)cccc1-c1cccc(NC(=O)c2nc3c(n2C)CCN(C2CCCCC2)C3)c1Cl (stereo not drawn) [Example 107, 4-(2-((2′-chloro-3′-(5-cyclohcxyl-1-methyl-4,5,6,7-tetrahydro-1H-imidazo[4,5-c]pyridine-2-carboxamido)-2-methyl-[1,1′-biphenyl]-3-yl)carbamoyl)-1-methyl-1,4,6,7-tetrahydro-5H-imidazo[4,5-c]pyridin-5-yl)-1-methylcyclohexane-1-carboxylic acid] | ≤ 10 |
| Cc1c(NC(=O)c2nc3c(n2C)CCN(C2CCC(C)(C(=O)O)CC2)C3)cccc1-c1cccc(NC(=O)c2nc3c(n2C)CCN(C2CCOCC2)C3)c1Cl (stereo not drawn) [Example 108, 4-(2-((2′-chloro-2-methyl-3′-(1-methyl-5-(tetrahydro-2H-pyran-4-yl)-4,5,6,7-tetrahydro-1H-imidazo[4,5-c]pyridine-2-carboxamido)-[1,1′-biphenyl]-3-yl)carbamoyl)-1-methyl-1,4,6,7-tetrahydro-5H-imidazo[4,5-c]pyridin-5-yl)-1-methylcyclohexane-1-carboxylic acid] | ≤ 10 |
| Cc1c(NC(=O)c2nc3c(n2C)CCN(CC[C@H]2CC[C@H](C(=O)O)CC2)C3)cccc1-c1cccc(NC(=O)c2nc3c(n2C)CCN(C2CCOCC2)C3)c1Cl [Example 109, trans-4-(2-(2-((2′-chloro-2-methyl-3′-(1-methyl-5-(tetrahydro-2H-pyran-4-yl)-4,5,6,7-tetrahydro-1H-imidazo[4,5-c]pyridine-2-carboxamido)-[1,1′-biphenyl]-3-yl)carbamoyl)-1-methyl-1,4,6,7-tetrahydro-5H-imidazo[4,5-c]pyridin-5-yl)ethyl)cyclohexane-1-carboxylic acid] | ≤ 10 |
| Cc1c(NC(=O)c2nc3c(n2C)CCN(C[C@H]2CC[C@H](C(=O)O)CC2)C3)cccc1-c1cccc(NC(=O)c2nc3c(n2C)CCN(C2CCOCC2)C3)c1Cl [Example 110, trans-4-((2-((2′-chloro-2-methyl-3′-(1-methyl-5-(tetrahydro-2H-pyran-4-yl)-4,5,6,7-tetrahydro-1H-imidazo[4,5-c]pyridine-2-carboxamido)-[1,1′-biphenyl]-3-yl)carbamoyl)-1-methyl-1,4,6,7-tetrahydro-5H-imidazo[4,5-c]pyridin-5-yl)methyl)cyclohexane-1-carboxylic acid] | ≤ 10 |
| Cc1c(NC(=O)c2nc3c(n2C)CCN(C2CCC(C(=O)O)CC2)C3)cccc1-c1cccc(NC(=O)c2nc3c(n2C)CCN(C2CCOCC2)C3)c1Cl (stereo not drawn) [Example 111, 4-(2-((2′-chloro-2-methyl-3′-(1-methyl-5-(tetrahydro-2H-pyran-4-yl)-4,5,6,7-tetrahydro-1H-imidazo[4,5-c]pyridine-2-carboxamido)-[1,1′-biphenyl]-3-yl)carbamoyl)-1-methyl-1,4,6,7-tetrahydro-5H-imidazo[4,5-c]pyridin-5-yl)cyclohexane-1-carboxylic acid] | ≤ 10 |
| CCC1(C(=O)O)CCC(N2CCc3c(nc(C(=O)Nc4cccc(-c5cccc(NC(=O)c6nc7c(n6C)CCN(C6CCOCC6)C7)c5Cl)c4C)n3C)C2)CC1 (stereo not drawn) [Example 112, 4-(2-((2′-chloro-2-methyl-3′-(1-methyl-5-(tetrahydro-2H-pyran-4-yl)-4,5,6,7-tetrahydro-1H-imidazo[4,5-c]pyridine-2-carboxamido)-[1,1′-biphenyl]-3-yl)carbamoyl)-1-methyl-1,4,6,7-tetrahydro-5H-imidazo[4,5-c]pyridin-5-yl)-1-ethylcyclohexane-1-carboxylic acid] | ≤ 10 |
| Cc1c(NC(=O)c2nc3c(n2C)CCN(C[C@H]2CC[C@@H](C(=O)O)CC2)C3)cccc1-c1cccc(NC(=O)c2nc3c(n2C)CCNC3)c1Cl [Example 113, cis-4-((2-((2′-chloro-2-methyl-3′-(1-methyl-4,5,6,7-tetrahydro-1H-imidazo[4,5-c]pyridine-2-carboxamido)-[1,1′-biphenyl]-3-yl)carbamoyl)-1-methyl-1,4,6,7-tetrahydro-5H-imidazo[4,5-c]pyridin-5-yl)methyl)cyclohexane-1-carboxylic acid] | ≤ 10 |
| Cc1c(NC(=O)c2nc3c(n2C)CCN(C)C3)cccc1-c1cccc(NC(=O)c2nc3c(n2C)CCN(CC[C@H]2CC[C@H](C(=O)O)CC2)C3)c1Cl [Example 115, trans-4-(2-(2-((2-chloro-3′-(1,5-dimethyl-4,5,6,7-tetrahydro-1H-imidazo[4,5-c]pyridine-2-carboxamido)-2′-methyl-[1,1′-biphenyl]-3-yl)carbamoyl)-1-methyl-1,4,6,7-tetrahydro-5H-imidazo[4,5-c]pyridin-5-yl)ethyl)cyclohexane-1-carboxylic acid] | ≤ 10 |
| Cc1c(NC(=O)c2nc3c(n2C)CCN(C)C3)cccc1-c1cccc(NC(=O)c2nc3c(n2C)CCN(C[C@H]2CC[C@H](C(=O)O)CC2)C3)c1Cl [Example 116, trans-4-((2-((2-chloro-3′-(1,5-dimethyl-4,5,6,7-tetrahydro-1H-imidazo[4,5-c]pyridine-2-carboxamido)-2′-methyl-[1,1′-biphenyl]-3-yl)carbamoyl)-1-methyl-1,4,6,7-tetrahydro-5H-imidazo[4,5-c]pyridin-5-yl)methyl)cyclohexane-1-carboxylic acid] | ≤ 10 |
| Cc1c(NC(=O)c2nc3c(n2C)CCN(C)C3)cccc1-c1cccc(NC(=O)c2nc3c(n2C)CCN(CCc2ccc(C(=O)O)cc2)C3)c1Cl [Example 117, 4-(2-(2-((2-chloro-3′-(1,5-dimethyl-4,5,6,7-tetrahydro-1H-imidazo[4,5-c]pyridine-2-carboxamido)-2′-methyl-[1,1′-biphenyl]-3-yl)carbamoyl)-1-methyl-1,4,6,7-tetrahydro-5H-imidazo[4,5-c]pyridin-5-yl)ethyl)benzoic acid] | ≤ 10 |
| Cc1c(NC(=O)c2nc3c(n2C)CCN(C)C3)cccc1-c1cccc(NC(=O)c2nc3c(n2C)CCN(C2CCC(C)(C(=O)O)CC2)C3)c1Cl (stereo not drawn) [Example 118, 4-(2-((2-chloro-3′-(1,5-dimethyl-4,5,6,7-tetrahydro-1H-imidazo[4,5-c]pyridine-2-carboxamido)-2′-methyl-[1,1′-biphenyl]-3-yl)carbamoyl)-1-methyl-1,4,6,7-tetrahydro-5H-imidazo[4,5-c]pyridin-5-yl)-1-methylcyclohexane-1-carboxylic acid] | ≤ 10 |
